From US20070299087A1, “New Compounds 319” (AstraZeneca AB, priority 2006, published 2007)

Target: T1, human β-Secretase (sBACE-Fc) (Homo sapiens, UniProt P56817)
T1 construct: The soluble part of the human β-Secretase (AA 1-AA 460) was cloned; Fc domain of IgG1 (C); made in house
Assay: TR-FRET assay (β-secretase enzyme, substrate (Europium)[…](Qsy7))
Format: biochemical
Protocol: The enzyme used in the IGEN Cleavage-, Fluorescent-, TR-FRET- and BiaCore assays is described as follows:
The soluble part of the human β-Secretase (AA 1-AA 460) was cloned into the ASP2-Fc10-1-IRES-GFP-neoK mammalian expression vector. The gene was fused to the Fc domain of IgG1 (affinity tag) and stably cloned into HEK 293 cells. Purified sBACE-Fc is stored in Tris buffer, pH 9.2 and has a purity of 95%.
Enzyme was diluted to 6 μg/mL and the substrate (Europium)[…](Qsy7) to 200 nM in reaction buffer (NaAcetate, chaps, triton x-100, EDTA pH 4.5). Compounds were diluted to the desired concentration in dimethyl sulfoxide (final dimethyl sulfoxide concentration in assay is 5%). The assay was done in a Costar 384 well round bottom, low volume, non-binding surface plate (Corning #3676). Enzyme (9 μL) and 1 μL of compound in dimethyl sulfoxide was added to the plate, mixed and pre-incubated for 10 min. Substrate (10 μL) was added and the reaction proceeded in the dark for 15 min at RT. The reaction was stopped with the addition of 7 μL NaAcetate, pH 9. The fluorescence of the product was measured on a Victor II plate reader with an excitation wavelength of 340 nm and an emission wavelength of 615 nm. […] The dimethyl sulfoxide control defined the 100% activity level and 0% activity was defined by exclusion of the enzyme (using reaction buffer instead).

T1 sequence (P56817 22-460): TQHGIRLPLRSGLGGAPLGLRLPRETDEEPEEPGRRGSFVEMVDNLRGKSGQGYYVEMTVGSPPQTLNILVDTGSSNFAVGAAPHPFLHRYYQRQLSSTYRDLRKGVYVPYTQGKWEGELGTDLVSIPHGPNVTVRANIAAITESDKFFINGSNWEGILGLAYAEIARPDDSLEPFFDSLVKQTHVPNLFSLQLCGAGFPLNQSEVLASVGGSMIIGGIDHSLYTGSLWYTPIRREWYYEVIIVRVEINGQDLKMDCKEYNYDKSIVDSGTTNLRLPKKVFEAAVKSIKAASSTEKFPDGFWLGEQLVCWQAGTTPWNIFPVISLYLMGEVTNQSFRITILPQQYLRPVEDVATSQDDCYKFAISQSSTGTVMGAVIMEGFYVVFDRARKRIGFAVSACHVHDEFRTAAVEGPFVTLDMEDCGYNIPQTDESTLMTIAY

Compound | IC50
NC1=NC(c2ccncc2)(c2cccc(-c3cccc(Cl)c3Cl)c2)C2=NCCCN12 (stereo not shown) [Example 28, 8-(2′,3′-Dichlorobiphenyl-3-yl)-8-pyridin-4-yl-2,3,4,8-tetrahydroimidazo[1,5-a]pyrimidin-6-amine 0.25 acetate] | 5070 nM
NC1=NC(c2ccncc2)(c2cccc(-c3cc(Cl)cnc3F)c2)C2=NCCCN12 (stereo not shown) [Example 29, 8-[3-(5-Chloro-2-fluoropyridin-3-yl)phenyl]-8-pyridin-4-yl-2,3,4,8-tetrahydroimidazo[1,5-a]pyrimidin-6-amine 0.25 acetate] | 87 nM
CCOc1cccc(-c2cccc(C3(c4ccncc4)N=C(N)N4CCCN=C43)c2)c1 (stereo not shown) [Example 30, 8-(3′-Ethoxybiphenyl-3-yl)-8-pyridin-4-yl-2,3,4,8-tetrahydroimidazo[1,5-a]pyrimidin-6-amine 0.25 acetate] | 328 nM
NC1=NC(c2ccncc2)(c2cccc(-c3cc(Cl)ccc3F)c2)C2=NCCCN12 (stereo not shown) [Example 31, 8-(5′-Chloro-2′-fluorobiphenyl-3-yl)-8-pyridin-4-yl-2,3,4,8-tetrahydroimidazo[1,5-a]pyrimidin-6-amine 0.25 acetate] | 79 nM
COc1cc(-c2cccc(C3(c4ccncc4)N=C(N)N4CCCN=C43)c2)ccc1F (stereo not shown) [Example 32, 8-(4′-Fluoro-3′-methoxybiphenyl-3-yl)-8-pyridin-4-yl-2,3,4,8-tetrahydroimidazo[1,5-a]pyrimidin-6-amine 0.25 acetate] | 515 nM
NC1=NC(c2ccncc2)(c2cccc(-c3cncc(F)c3)c2)C2=NCCCN12 (stereo not shown) [Example 34, 8-[3-(5-Fluoropyridin-3-yl)phenyl]-8-pyridin-4-yl-2,3,4,8-tetrahydroimidazo[1,5-a]pyrimidin-6-amine 0.25 acetate] | 186 nM
COc1cc(OS(C)(=O)=O)cc(-c2cccc(C3(c4ccncc4)N=C(N)N4CCCN=C43)c2)c1 (stereo not shown) [Example 35, 3′-(6-Amino-8-pyridin-4-yl-2,3,4,8-tetrahydroimidazo[1,5-a]pyrimidin-8-yl)-5-methoxybiphenyl-3-yl methanesulfonate 0.25 acetate] | 57 nM
NC1=NC(c2ccncc2)(c2cccc(-c3cc(Cl)ccc3Cl)c2)C2=NCCCN12 (stereo not shown) [Example 36, 8-(2′,5′-Dichlorobiphenyl-3-yl)-8-pyridin-4-yl-2,3,4,8-tetrahydroimidazo[1,5-a]pyrimidin-6-amine 0.25 acetate] | 267 nM
NC1=NC(c2ccncc2)(c2cccc(-c3ccc(F)c(Cl)c3)c2)C2=NCCCN12 (stereo not shown) [Example 37, 8-(3′-Chloro-4′-fluorobiphenyl-3-yl)-8-pyridin-4-yl-2,3,4,8-tetrahydroimidazo[1,5-a]pyrimidin-6-amine 0.25 acetate] | 99 nM
NC1=NC(c2ccoc2)(c2cccc(-c3cc(Cl)cc(Cl)c3)c2)C2=NCCCN12 (stereo not shown) [Example 43, 8-(3′,5′-Dichlorobiphenyl-3-yl)-8-(3-furyl)-2,3,4,8-tetrahydroimidazo[1,5-a]pyrimidin-6-amine acetate] | 152 nM
NC1=NC(c2ccoc2)(c2cccc(-c3cccnc3F)c2)C2=NCCCN12 (stereo not shown) [Example 44, 8-[3-(2-Fluoropyridin-3-yl)phenyl]-8-(3-furyl)-2,3,48-tetrahydroimidazo[1,5-a]pyrimidin-6-amine acetate] | 656 nM
NC1=NC(c2cccc(-c3cc(Cl)cc(Cl)c3)c2)(c2ccco2)C2=NCCCN12 (stereo not shown) [Example 50, 8-(3′,5′-Dichlorobiphenyl-3-yl)-8-(2-furyl)-2,3,4,8-tetrahydroimidazo[1,5-a]pyrimidin-6-amine acetate] | 74 nM
COc1cccc(-c2cccc(C3(c4ccco4)N=C(N)N4CCCN=C43)c2)c1 (stereo not shown) [Example 51, 8-(2-Furyl)-8-(3′-methoxybiphenyl-3-yl)-2,3,4,8-tetrahydroimidazo[1,5-a]pyrimidin-6-amine acetate] | 472 nM
Cc1nc(C2(c3cccc(-c4cc(Cl)cc(Cl)c4)c3)N=C(N)N3CCCN=C32)cs1 (stereo not shown) [Example 57, 8-(3′,5′-Dichlorobiphenyl-3-yl)-8-(2-methyl-1,3-thiazol-4-yl)-2,3,4,8-tetrahydroimidazo[1,5-a]pyrimidin-6-amine acetate] | 3790 nM
NC1=NC(c2ccsc2)(c2cccc(-c3cc(Cl)cc(Cl)c3)c2)C2=NCCCN12 (stereo not shown) [Example 63, 8-(3′,5′-Dichlorobiphenyl-3-yl)-8-(3-thienyl)-2,3,4,8-tetrahydroimidazo[1,5-a]pyrimidin-6-amine acetate] | 68 nM
NC1=NC(c2ccsc2)(c2cccc(-c3cccnc3F)c2)C2=NCCCN12 (stereo not shown) [Example 64, 8-[3-(2-Fluoropyridin-3-yl)phenyl]-8-(3-thienyl)-2,3,4,8-tetrahydroimidazo[1,5-a]pyrimidin-6-amine acetate] | 247 nM
NC1=NC(c2ccncc2)(c2cccc(-c3cccnc3F)c2)C2=NCC(F)(F)CN12 (stereo not shown) [Example 68, 3,3-Difluoro-8-[3-(2-fluoropyridin-3-yl)phenyl]-8-pyridin-4-yl-2,3,4,8-tetrahydroimidazo[1,5-a]pyrimidin-6-amine 0.75 acetate] | 59 nM
NC1=NC(c2ccncc2)(c2cccc(-c3cncc(F)c3)c2)C2=NCC(F)(F)CN12 (stereo not shown) [Example 71, 3,3-Difluoro-8-[3-(5-fluoropyridin-3-yl)phenyl]-8-pyridin-4-yl-2,3,4,8-tetrahydroimidazo[1,5-a]pyrimidin-6-amine acetate] | 120 nM
COc1cccc(-c2cccc(C3(c4ccncc4)N=C(N)N4CC(F)(F)CN=C43)c2)c1 (stereo not shown) [Example 72, 3,3-Difluoro-8-(3′-methoxybiphenyl-3-yl)-8-pyridin-4-yl-2,3,4,8-tetrahydroimidazo[1,5-a]pyrimidin-6-amine 1.25 acetate] | 68 nM
NC1=NC(c2ccncc2)(c2cccc(-c3cc(Cl)cnc3F)c2)C2=NCC(F)(F)CN12 (stereo not shown) [Example 73, 3,3-Difluoro-8-[3-(5-Chloro-2-fluoropyridin-3-yl)phenyl]-8-pyridin-4-yl-2,3,4,8-tetrahydroimidazo[1,5-a]pyrimidin-6-amine acetate] | 61 nM
NC1=NC(c2ccncc2)(c2ccc(F)c(-c3cccnc3F)c2)C2=NCC(F)(F)CN12 (stereo not shown) [Example 81, 3,3-Difluoro-8-[4-fluoro-3-(2-fluoropyridin-3-yl)phenyl]-8-pyridin-4-yl-2,3,4,8-tetrahydroimidazo[1,5-a]pyrimidin-6-amine acetate] | 49 nM
COc1cccc(-c2cc(C3(c4ccncc4)N=C(N)N4CC(F)(F)CN=C43)ccc2F)c1F (stereo not shown) [Example 82, 3,3-Difluoro-8-(2′,6-difluoro-3′-methoxybiphenyl-3-yl)-8-pyridin-4-yl-2,3,4,8-tetrahydroimidazo[1,5-a]pyrimidin-6-amine acetate] | 42 nM
COc1cncc(-c2cc(C3(c4ccncc4)N=C(N)N4CC(F)(F)CN=C43)ccc2F)c1 (stereo not shown) [Example 83, 3,3-Difluoro-8-[4-fluoro-3-(5-methoxypyridin-3-yl)phenyl]-8-pyridin-4-yl-2,3,4,8-tetrahydroimidazo[1,5-a]pyrimidin-6-amine 0.5 acetate] | 48 nM
NC1=NC(c2cccc(-c3cccnc3F)c2)(c2ccncc2F)C2=NCC(F)(F)CN12 (stereo not shown) [Example 90, 3,3-Difluoro-8-(3-fluoropyridin-4-yl)-8-[3-(2-fluoropyridin-3-yl)phenyl]-2,3,4,8-tetrahydroimidazo[1,5-a]pyrimidin-6-amine] | 290 nM
NC1=NC(c2cccc(-c3cncnc3)c2)(c2ccncc2F)C2=NCC(F)(F)CN12 (stereo not shown) [Example 91, 3,3-Difluoro-8-(3-fluoropyridin-4-yl)-8-(3-pyrimidin-5-ylphenyl)-2,3,4,8-tetrahydroimidazo[1,5-a]pyrimidin-6-amine] | 440 nM
